Measurements: US6620828B2, “Thiazole compounds and pharmaceutical compositions for inhibiting protein kinases and methods for their use” (Agouron Pharmaceuticals, Inc., priority 1999, dated 2003)

Tests used:
[1] = test system: lung cancer cells (line MV522); experiment: Cancer cell proliferation (MV522) assay; format: cell-based; conditions: MV522, Table 2
[2] = target: T1, phosphorylated VEGF-R2Δ50 (FLVK-P) (Homo sapiens, UniProt P35968, DEL940-989/E990V); experiment: VEGF-R2 coupled spectrophotometric (FLVK-P) assay; format: biochemical; conditions: Table 2; spectrophotometric assay
T1 construct: VEGF-R2Δ50 contains residues 806-939 and 990-1171; made in house; host or cells: baculovirus/insect cells
Outline: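 Baculovirus-expressed human VEGF-R2Δ50 (residues 806-939/990-1171, E990V) was autophosphorylated with 3 mM ATP, 40 mM MgCl2 for 2 h at 4° C. ADP formation was coupled via PK/LDH to NADH oxidation, read at 340 nm, with 5.1 mM poly(E4Y1), 1 mM ATP, 25 mM MgCl2, Hepes pH 7.5. Ki came from activity across compound concentrations.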

LCK tyrosine kinase = target: T2, LCK tyrosine kinase (Homo sapiens, UniProt P06239, C224D/P223M); experiment: LCK spectrophotometric assay; format: biochemical; conditions: Table 2; for LCK % inhibition @ 1: at 1 (head μM)
T2 construct: starting from amino acid residue 223 to the end of the protein at residue 509; made in house; host or cells: insect cells
Method: LCK Construct for Assay: The LCK tyrosine kinase was expressed in insect cells as an N-terminal deletion starting from amino acid residue 223 to the end of the protein at residue 509, with the following two amino acid substitutions at the N-terminus: […] and C224D.
The spectrophotometric assay was carried out as described above for VEGF-R2, except for the following changes in concentration: LCK=60 nM, MgCl2=0 mM, poly(E4Y1)=20 mM.

[3] = test system: human umbilical vein endothelial cells (HUVEC); experiment: HUVEC proliferation assay; format: cell-based; conditions: Homo sapiens, HUVEC, Table 2
Outline: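 Exponentially growing HUVEC were serum-starved 24 h (F12K + 1% FBS), pre-treated 1 h with compound (0.1% DMSO final), then stimulated with 6 ng/ml VEGF. Proliferation was read 72 h later by MTT reduction (A595). IC50 came from seven 0.5-log concentrations in triplicate; screens gave % inhibition relative to VEGF-only and starved wells.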

T2 sequence (P06239 223-509 P223M/C224D): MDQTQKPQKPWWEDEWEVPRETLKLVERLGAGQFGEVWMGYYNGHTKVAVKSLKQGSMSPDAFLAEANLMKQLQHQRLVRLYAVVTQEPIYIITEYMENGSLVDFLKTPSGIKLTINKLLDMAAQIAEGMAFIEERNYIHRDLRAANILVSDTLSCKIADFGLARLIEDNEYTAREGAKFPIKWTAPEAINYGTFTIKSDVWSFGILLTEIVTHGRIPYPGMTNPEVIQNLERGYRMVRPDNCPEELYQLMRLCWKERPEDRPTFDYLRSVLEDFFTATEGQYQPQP
T1 sequence (P35968 with tags, fused parts or gaps DEL940-989/E990V limits assumed): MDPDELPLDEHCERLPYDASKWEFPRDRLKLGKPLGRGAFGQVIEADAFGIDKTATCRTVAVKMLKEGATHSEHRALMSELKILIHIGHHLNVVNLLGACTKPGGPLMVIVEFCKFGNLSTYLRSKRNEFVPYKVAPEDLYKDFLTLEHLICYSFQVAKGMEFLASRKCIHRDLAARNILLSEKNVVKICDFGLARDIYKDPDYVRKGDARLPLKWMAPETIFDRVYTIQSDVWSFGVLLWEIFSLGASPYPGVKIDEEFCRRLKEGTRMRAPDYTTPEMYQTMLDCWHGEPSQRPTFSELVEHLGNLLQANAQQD

SMILES | IC50 [1] [nM] | Ki [2] [nM] | LCK % inhibition @ 1 (LCK tyrosine kinase) [% @] | IC50 [3] [nM] | LCK % inhibition @ 5 (LCK tyrosine kinase; at 5 (head μM)) [% @]
COc1cc(Nc2nc(N)c(-c3nc(-c4cccc(O)c4)cs3)s2)cc(OC)c1OC [A(17), 3-[4′-Amino-2′-(3,4,5-trimethoxy-phenylamino)-[2,5′]bithiazolyl-4-yl]-phenol] | > 10000 | 3 | 21 | > 1000 | –
CCCNc1nc(N)c(-c2nc(-c3cccc(O)c3)cs2)s1 [A(29), 3-(4′-Amino-2′-propylamino-[2,5′]bithiazolyl-4-yl)-phenol] | > 10000 | 78 | – | > 1000 | 10
COc1cc(Nc2nc(N)c(-c3nc(-c4cccc(O)c4)no3)s2)cc(OC)c1OC [K(1), 3-{5-[4-Amino-2-(3,4,5-trimethoxy-phenylamino)-thiazol-5-yl]-[1,2,4]oxadiazol-3-yl}-phenol] | 5400 | 6 | 42 | 950 | –
